We go through ten molecules from US5583142A, “Analgesic and nootropic drugs” (priority 1992, dated 1996).

Molecules are shown by their SMILES. Several values for one entry are separate records, joined by “and”; a condition that tells them apart may be missing. Equal entries are not always repeated. Where two headings read alike, the source gives them in different places.

In data set [1] the test system is presynaptic muscarinic autoreceptor. Conditions: cited from earlier work.
A short description of the next data set: rat tail-flick test. Type of data set: in vivo. The following applies: for tail-flick: 20 mg/kg i.p. The procedure:
(§1) The analgesic action was detected in mouse, rat, guinea pig and dog. The mouse was subjected to hot plate and writhing tests; the rat to tail-flick and paw-pressure tests; the guinea pig to paw-pressure test only; the dog to the test described by Vainio et al. [J. Vet. Pharmacol. Ther., 12, 225-231 (1989)] using an electric stimulation. Consequently, the claimed compounds were tested with pain being induced by stimuli of different nature: thermal (hot plate and tail flick), chemical (writhing by acetic acid), mechanical (paw pressure) and electrical (cutaneous stimulation).
(§2) As already mentioned, the claimed products were assayed also in rat by the paw-pressure and tail-flick tests.
(§3) Both tests were carried out with the max. doses not impairing the rats normal behaviour. […] The painful stimulus utilized in the paw-pressure test involved the animal consciousness to a much greater extent than the stimulus used in the tail-flick test, in fact, the type and anatomic localization of the latter mainly involved a spinal response.
(§4) Both tests on rats were carried out with the max. doses not altering the behaviour of the treated animals.
The test was performed using th
Background: In hot-plate and tail-flick tests a longer latency is read as antinociception.

Data set [2] can be described thus: mouse rota-rod test (16 r.p.m.). An excerpt:
All products tested to detect their antinociceptive activity had been previously tested by the rota-rod test to determine their maximum utilizable dose in analgesic tests. In fact, by this test it is possible to determine the highest dose of drug not impairing the normal performance of animals in a test that simultaneously evaluates motor coordination, equilibrium, resistance to fatigue, and muscle strength. This test is meant to evaluate the capability of mice to stay balanced on a rotating rod [cf. Vaught et al., Neuropharmacology, 24 (3) 211-216 (1985)].
The calculated doses were those used in the two analgesic tests on mice.

The next data set can be described thus: in vivo. The following applies: mouse, sc. An excerpt:
Potency, efficacy and toxicity of SM21, PG9 and SM32 in comparison with
four principal reference analgesic drugs tested in mouse. As analgesic

The nature of another data set: rat paw-pressure test. Type of data set: in vivo. The following applies: for paw-pressure: 20 mg/kg i.p. How it is done:
as §1, §2, §3, §4

Data set [3] is classed as in vivo, mouse.
Data set [4] is described as follows: guinea-pig paw-pressure test. Type of data set: in vivo. Conditions: guinea-pig, 20 mg/kg i.p. The procedure:
as §1
Effect of SM21 and PG9 in guineapig pawpressure test. *P < 0.01; P < 0.0
in comparison with saline controls. The number of guineapig is in […]

Data set [5] in a line: mouse acetic acid writhing test. Type of data set: in vivo. How it is done:
as §1
The claimed molecules, chosen as examples, were also assayed in mice by the writhing test (Table 4). The test is meant to evaluate the products capability to prevent mice writhes ensuing abdominal pains caused by i.p. injection of a 0.6% aqueous solution of acetic acid.
Acetic acid solution = 0.6% v/v.
On the technique in general: In writhing tests, fewer writhes than in controls are read as antinociception.

Data set [6] can be described thus: paw-pressure test in rats with a lesion in the nucleus basalis magnocellularis (NBM). It is filed as in vivo, rat. Conditions: 30 mg/kg i.p. The source says:
3. […] In fact, as known, the magnocellular basal nucleus destruction causes the degeneration of most central cholinergic system.

For data set [7] the following is noted: mouse. The procedure: In FIGS. 7 and 7 bis vertical lines give s.e. mean. Each column represents the mean of 6-10 mice. SM-21 maleate, PG-9 maleate, SM-32 oxalate, cocaine HCl, amphetamine sulphate and caffeine were administered 15 min before test.
The nature of data set [8]: mouse passive avoidance test, amnesia induced by hypoxia. Type of data set: in vivo. Conditions: 30 to 300 mg/kg i.p. How it is done: The nootropic action (learning facilitation, memory enhancement, intelligence booster, cognition activation) was assessed both in mouse and in rat by the two following methods: the mouse was tested by the passive avoidance method, using the so-called light-dark box. A painful stimulus, i.e. an electrically-evoked shock through the animal paws, and an unpleasant but not painful stimulus (mice fall into a water-ice mixture ensuing a sudden dark box floor opening) were used. A non-painful stimulus was required because the data referred to learning had not to be untruthfully negative due to the analgesic action of the claimed molecules. The painful stimulus (electric shock), like the unpleasant but not painful one, was effective at the interval of doses at which the claimed molecules were clearly nootropic but not yet analgesic. Independently of the type of stimulus used, the procedure consists of two experimental phases denominated, respectively, Training and Retention, the latter being carried out 24 hrs after the former. […] To this purpose the time taken by mice to enter the dark box is measured again: the longer the time recorded in the second day when compared with the first (Retention minus Training), the higher the mice learning and memorizing capabilities. […]

In the case of `CCCCN1CCCCC1C(=O)Nc1c(C)cccc1C` (stereo not drawn) [bupivacaine], the “selectivity and efficacy as antagonists of the presynaptic muscarinic autoreceptor” value (shortened to “selectivity and efficacy as antagonists”) in [1] is reported as “little selective as well as little efficacious”.
Regarding `CCN(CC)CCOC(=O)c1ccc(N)cc1` [procaine], in [1], the “selectivity and efficacy as antagonists” value was “little selective as well as little efficacious”.
Take `Cc1cccc(C)c1OCC(C)N` (stereo not drawn) [mexyletine]: the “selectivity and efficacy as antagonists” value in data set [1] is given as “little selective as well as little efficacious”.
With `CCC(Oc1ccc(Cl)cc1)C(=O)O[C@H]1C[C@H]2CC[C@@H](C1)N2C` (stereo partly drawn) [SM-21, 3α-Tropanyl 2-(p-chlorophenoxy)-butyrate], in the data set “rat tail-flick test”, the “activity in tail-flick test, in words” value is recorded as “active”. Further, the results for the tail-flick in the data set “rat tail-flick test” (15 min after treatment), in “rat tail-flick test” (30 min after treatment) and in “rat tail-flick test” (45 min after treatment) were 3.6 ± 0.2 s, 4.6 ± 0.4 s and 4.9 ± 0.4 s, respectively. Moreover, the “rota-rod performance (number of falls in 30 s)” value in data set [2] (30 mg/kg s.c., 15 min after treatment) is 1.9 ± 0.3 falls in 30 s; in data set [2] (30 mg/kg s.c., 30 min after treatment) it was 1.5 ± 0.5 falls in 30 s; in data set [2] (30 mg/kg s.c., 45 min after treatment), 1.2 ± 0.5 falls in 30 s; in data set [2] (40 mg/kg s.c., 15 min after treatment) it was 1.6 ± 0.6 falls in 30 s; in [2] (40 mg/kg s.c., 30 min after treatment), 1.2 ± 0.4 falls in 30 s; in data set [2] (40 mg/kg s.c., 45 min after treatment) it was 1.2 ± 0.4 falls in 30 s. Besides, the “rota-rod performance (number of falls in 30 s)” value was determined as 2.2 ± 0.4 falls in 30 s in data set [2] (50 mg/kg s.c., 15 min after treatment); 2.6 ± 0.5 falls in 30 s in data set [2] (50 mg/kg s.c., 30 min after treatment); 2.4 ± 0.5 falls in 30 s in [2] (50 mg/kg s.c., 45 min after treatment); 3.5 ± 0.5 falls in 30 s in data set [2] (60 mg/kg s.c., 15 min after treatment); 4.3 ± 0.4 falls in 30 s in data set [2] (60 mg/kg s.c., 30 min after treatment); 4.4 ± 0.6 falls in 30 s in [2] (60 mg/kg s.c., 45 min after treatment). In “in vivo”, this molecule registered an LD50 of 883 µmol/kg. The “activity in paw-pressure test, in words” value in the data set “rat paw-pressure test” is given as “almost equivalent analgesia”. For the same molecule, the paw-pressure in the data set “rat paw-pressure test” (15 min after treatment) is 93.1 ± 4.0 g; in “rat paw-pressure test” (30 min after treatment) it was 93.4 ± 5.4 g; in “rat paw-pressure test” (45 min after treatment), 92.3 ± 6.4 g; in data set [4] (15 min after treatment), 92.8 ± 4.0 g; in [4] (30 min after treatment), 110.0 ± 6.6 g; in data set [4] (45 min after treatment) it was 64.0 ± 6.2 g. The paw-pressure amounted to 75.1 ± 5.8 g in data set [6] (lesioned (NBM) rats, 15 min after treatment); 68.3 ± 4.9 g in [6] (lesioned (NBM) rats, 30 min after treatment); 67.2 ± 3.9 g in data set [6] (lesioned (NBM) rats, 45 min after treatment); 109.6 ± 4.8 g in [6] (naive rats, 15 min after treatment); 87.5 ± 5.2 g in [6] (naive rats, 30 min after treatment); 67.8 ± 4.4 g in data set [6] (naive rats, 45 min after treatment). In addition, the paw-pressure is listed as 104.9 ± 4.6 g in [6] (sham rats, 15 min after treatment); 93.4 ± 5.3 g in data set [6] (sham rats, 30 min after treatment); 63.9 ± 5.1 g in data set [6] (sham rats, 45 min after treatment). Moreover, the “ANALGESIC ACTIVITY (degree of analgesia, latency on hot plate)” value in [3] (max. dose not affecting mice behaviour) is reported as “++++ (Latency above 35" ++++-)”. Besides, in data set [3] (mouse hot plate, FIG. 5, always (s.c. and i.p.)), the “analgesic effect (AUC up to 45 min) compared with reference analgesics” value is “always more active than all reference analgesics including morphine”. The “Efficacy as analgesic (Morphine = 100), AUC (Area Under Curve)” value in data set [3] (mouse, in vivo) was determined as 111. Moreover, the “Efficacy as analgesic (Morphine = 100), M.E. (Maximum Analgesic Effect)” value in [3] (mouse, in vivo) is 111. For the same molecule, the hot-plate latency in [3] (mouse, 40 mg/kg i.p., 15 min after treatment) is listed as 36.7 ± 2.1 s; in [3] (mouse, 40 mg/kg i.p., 30 min after treatment), 32.0 ± 2.2 s; in data set [3] (mouse, 40 mg/kg i.p., 45 min after treatment) it was 25.9 ± 2.7 s; in data set [3] (mouse, 40 mg/kg s.c., 15 min after treatment) it was 38.9 ± 2.9 s; in data set [3] (mouse, 40 mg/kg s.c., 30 min after treatment) it was 31.3 ± 2.5 s; in data set [3] (mouse, 40 mg/kg s.c., 45 min after treatment), 29.4 ± 3.3 s. In addition, in [5] (mouse), the “efficacy in writhing test, in words” value is given as “slightly inferior to morphine”. This molecule came in with a number of writhes in [5] (mouse, 40 mg/kg s.c.) of 11.4 ± 1.6. The “Efficacy as analgesic (Morphine = 100)” value in data set [5] (mouse, writhing, 40 mg/kg s.c.) amounted to 90. The same molecule returned a percent inhibition in [5] (mouse, writhing, 40 mg/kg s.c.) of 67.3%. In addition, in data set [5] (sc, mouse writhing), the ED50 was 21.5 mg/kg and 47.4 µmol/kg.
In the case of `CC(N)Cc1ccccc1` (stereo not drawn) [amphetamine], in data set [7] (FIG. 7 and FIG. 7 bis), the “motor activity and curiosity (exploration activity)” value (shortened to “motor activity and curiosity”) is recorded as “remarkably increase the motor activity”.
Consider `COC(=O)[C@H]1[C@@H](OC(=O)c2ccccc2)C[C@@H]2CC[C@H]1N2C` [cocaine], for which the “motor activity and curiosity” value in data set [7] (in vivo) is “remarkably increase the motor activity”.
For the molecule `NC(=O)CN1CCCC1=O` [Piracetam], the “effect on amnesia induced by hypoxia” value in data set [8] is “inactive”.
For the molecule `Cn1c(=O)c2c(ncn2C)n(C)c1=O` [caffeine], the “motor activity and curiosity” value in data set [7] (FIG. 7 and FIG. 7 bis) is given as “remarkably increase the motor activity”.
Regarding `CCN(CC)CCNC(=O)c1ccc(N)cc1` [procainamide], the “selectivity and efficacy as antagonists” value in data set [1] is reported as “little selective as well as little efficacious”.
As to `CN1CCC[C@H]1c1cccnc1` [nicotine], in data set [7] (FIG. 7 and FIG. 7 bis), the “motor activity and curiosity” value is recorded as “remarkably increase the motor activity”.

As a reminder, the LD50 is the dose at which mortality reaches 50%. In general, ED50 refers to the dose that gives a 50% effect, or the effect in half of the subjects. The low end stands for greater potency, the high end for weaker potency.
